This note sets out measurements from ChEMBL document CHEMBL3244298, “Adamantylthiourea derivatives as antiviral agents” (J Med Chem, 1979).

Data set [1] has as its system unidentified influenza virus. In words: Antiviral activity against Influenza virus A2/Asian/J305 infected in ip dosed mouse assessed as concentration required to cause survival at 21 days. Format: functional. Conditions: 504 h, read-out: PD50.
Data set [2] concerns unidentified influenza virus. In words: Antiviral activity against Influenza virus A2/Asian/J305 infected in mouse assessed as survival at 100 mg/kg, ip administered single dose at 5 mins post viral infection followed by 2 doses per day for next 3 days relative to control. In kind it is functional. Conditions: route intraperitoneal.
For data set [3], the system named is Mus musculus. In words: Toxicity in mouse assessed as CNS related side effects at 100 mg/kg, ip and 300 mg/kg, po measured for 24 hrs. As to conditions: in vivo. In kind it is organism-based, Central nervous system.
Another data set deals with Influenza B virus. In words: Antiviral activity against Influenza B virus (B/Lee/40) infected in rhesus monkey kidney cells assessed as growth inhibition after 4 days by tube dilution method. In kind it is functional, organism-based. Conditions: B/Lee/1940.
In data set [4] the test system is unidentified influenza virus. The experiment in a line: Antiviral activity against Influenza virus A2/Asian/J305 infected in rhesus monkey kidney cells assessed as concentration required to reduce viral titer by >= 2 logarithms after 4 days by tube dilution method. In kind it is functional.
The subject of a further data set is Semliki Forest virus. In words: Antiviral activity against Semliki forest virus infected in ip dosed mouse assessed as protection against viral infection. In kind it is functional, organism-based.
The subject of data set [5] is unidentified influenza virus. The experiment in a line: Antiviral activity against Influenza virus A2/Asian/J305 infected in po dosed mouse assessed as concentration required to cause survival at 21 days. Conditions: 504 h, read-out: PD50. In kind it is functional.
The test system of another data set is Enterovirus. In words: Antiviral activity against Rhinovirus 42 infected in human WI38 cells assessed as growth inhibition after 7 days by tube dilution method. Format: functional, organism-based. Conditions: WI-38.
The test system of data set [6] is unidentified influenza virus. The experiment in a line: Antiviral activity against Influenza virus A2/Asian/J305 infected in mouse assessed as survival at 50 mg/kg, ip administered 3 doses on day of viral infection followed by 2 doses on next day and single dose per day for next 2 days relative to control. Format: functional. As to conditions: 48 h, route intraperitoneal.

In a further data set the test system is Respirovirus muris. In words: Antiviral activity against Sendai virus infected in ip dosed mouse assessed as protection against viral infection. Format: functional, organism-based.
For data set [7], the system named is unidentified influenza virus. In words: Antiviral activity against Influenza virus A2/Asian/J305 infected in mouse assessed as survival at 100 mg/kg, ip administered two doses at 24 hrs post viral infection followed by single dose for subsequent days relative to control. Format: functional. Conditions: route intraperitoneal.
The next data set deals with Herpesviridae sp. The experiment in a line: Antiviral activity against Herpes simplex virus infected in ip dosed mouse assessed as protection against viral infection. In kind it is functional, organism-based.
For data set [8], the system named is unidentified influenza virus. In words: Antiviral activity against Influenza virus A2/Asian/J305 infected in mouse assessed as survival at 100 mg/kg, ip administered two doses at 48 hrs post viral infection followed by single dose for subsequent days relative to control. Format: functional. As to conditions: route intraperitoneal.
The test system of data set [9] is unidentified influenza virus. The experiment in a line: Antiviral activity against Influenza virus A2/Asian/J305 infected in mouse assessed as survival at 200 mg/kg, ip administered two doses at 24 hrs post viral infection followed by single dose for subsequent days relative to control. In kind it is functional. As to conditions: route intraperitoneal.
Data set [10] deals with Mus musculus. The experiment in a line: Toxicity in mouse assessed as ataxia at > 600 mg/kg, ip measured for 24 hrs. In kind it is organism-based. Further details: dose 600 mg/kg, route intraperitoneal. Conditions: in vivo.
Data set [11] deals with unidentified influenza virus. In words: Antiviral activity against Influenza virus A2/Asian/J305 infected in mouse assessed as survival at 200 mg/kg, ip administered two doses at 48 hrs post viral infection followed by single dose for subsequent days relative to control. Conditions: route intraperitoneal. In kind it is functional.
The subject of data set [12] is Mus musculus. The experiment in a line: Toxicity in mouse assessed as CNS related side effects up to 1000 mg/kg, po measured for 24 hrs. Conditions: in vivo. On the set-up: dose 1000 mg/kg, route oral. In kind it is organism-based, Central nervous system.
Data set [13] is described as follows: Acute toxicity in po dosed mouse measured for 24 hrs. In kind it is organism-based. Conditions: in vivo.
Data set [14] has as its system Mus musculus. In words: Toxicity in mouse assessed as tremors at > 600 mg/kg, ip measured for 24 hrs. Further details: dose 600 mg/kg, route intraperitoneal. In kind it is organism-based. Conditions: in vivo.
Data set [15] in a line: Acute toxicity in ip dosed mouse measured for 24 hrs. In kind it is organism-based. As to conditions: in vivo.
Data set [16] has as its system unidentified influenza virus. In words: Antiviral activity against Influenza virus A2/Asian/J305 infected in mouse assessed as survival at 200 mg/kg, ip administered 3 doses on day of viral infection followed by 2 doses on next day and single dose per day for next 2 days relative to control. In kind it is functional. As to conditions: 48 h, route intraperitoneal.

The test system of data set [17] is unidentified influenza virus. The experiment in a line: Antiviral activity against Influenza virus A2/Asian/J305 infected in mouse assessed as survival at 200 mg/kg, ip administered single dose at 5 mins post viral infection followed by 2 doses per day for next 3 days relative to control. As to conditions: route intraperitoneal. In kind it is functional.

Structures are written as SMILES. Activity calls are given as the source filed them. No cut-off for these calls is given here.

In the case of `O=C1CSC(NC23CC4CC(CC(C4)C2)C3)=N1`, the ED50 in [1] is above 200 mg/kg.
On to `NC(=S)NC12CC3CC(CC(C3)C1)C2`, for which the ED50 in [1] is above 200 mg/kg.
Turning to `Cc1ccc(S(=O)(=O)NC(=S)NC23CC4CC(CC(C4)C2)C3)cc1`, the ED50 in [1] was above 200 mg/kg.
Still for that read-out and setting: for `NC(=O)NC(=S)NC12CC3CC(CC(C3)C1)C2` the value was above 400 mg/kg.
As for `NC12CC3CC(CC(C3)C1)C2` [AMANTADINE], the results for the survival at 100 mg/kg in data set [2], in [7] and in data set [8] were 67%, 77% and 0%, respectively. Further, the Activity entry with Mus musculus [3] was “Toxic”; in data set [4] it was 0.05 µg/mL. In addition, the “growth inhibition (GI)” value with Influenza B virus and in the data set with Enterovirus was “inactive” each time. Moreover, the result with Semliki Forest virus, in the data set on Respirovirus muris and in the data set with Herpesviridae sp. was inactive. Further, the ED50 in data set [5] was 4 mg/kg; in data set [1], 6 mg/kg. Besides, the survival at 50 mg/kg in data set [6] turned out to be 72%.
For the molecule `CCOC(=O)/N=C(/NC12CC3CC(CC(C3)C1)C2)SC`, the ED50 in data set [1] came to 158 mg/kg.
For the molecule `CCOC(=O)NC(=S)NC12CC3CC(CC(C3)C1)C2`, the ED50 in [1] is above 400 mg/kg.
`Nc1ccc(S(=O)(=O)NC(=S)NC23CC4CC(CC(C4)C2)C3)cc1`: the “growth inhibition (GI)” value in the data set on Influenza B virus and with Enterovirus was “inactive” throughout. The survival at 200 mg/kg amounted to 28% in data set [9], 0% in data set [11], 77% in [16] and 36% in [17]. Besides, the Activity is 12.5 µg/mL in data set [4], “Toxic” with Mus musculus [10], “Non-toxic” with Mus musculus [12] and “Toxic” with Mus musculus [14]. The outcome with Semliki Forest virus, in the data set on Respirovirus muris and in the data set with Herpesviridae sp. was inactive. Besides, the results for the ED50 in [5] and in data set [1] were 35 mg/kg and 16 mg/kg, respectively. For the same molecule, the LD50 at 24 h in data set [13] was above 1000 mg/kg; in [15], 775 mg/kg.
In the case of `CC(=O)Nc1ccc(S(=O)(=O)NC(=S)NC23CC4CC(CC(C4)C2)C3)cc1`, in [1], the ED50 was above 200 mg/kg.
On to `O=C(NC(=S)NC12CC3CC(CC(C3)C1)C2)Oc1ccccc1`, for which the ED50 in data set [1] is above 400 mg/kg.
